Assay results published in PubChem BioAssay (NCI).
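Assay format: 96-well plates, 48-hour exposure. GI50 is the concentration that inhibits growth by half. TGI: total growth inhibition.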

Key:
Assay in all cases: NCI-60 cell line screen, 48 h; in the data active means GI50 below about 0.43 µM; inactive means the rest
SK-MEL-5 melanoma = system: SK-MEL-5 melanoma
UACC-62 melanoma = system: UACC-62 melanoma
OVCAR-5 ovarian = system: OVCAR-5 ovarian
SNB-19 CNS = system: SNB-19 CNS
LOX IMVI melanoma = system: LOX IMVI melanoma
OVCAR-3 ovarian = system: OVCAR-3 ovarian
SN12C renal = system: SN12C renal
IGROV1 ovarian = system: IGROV1 ovarian
SW-620 colon = system: SW-620 colon
DU-145 prostate = system: DU-145 prostate
RPMI-8226 leukemia = system: RPMI-8226 leukemia
HCC-2998 colon = system: HCC-2998 colon
OVCAR-4 ovarian = system: OVCAR-4 ovarian
NCI-H460 lung = system: NCI-H460 lung
M14 melanoma = system: M14 melanoma
SF-539 CNS = system: SF-539 CNS
K-562 leukemia = system: K-562 leukemia
HS 578T breast = system: HS 578T breast
NCI-H23 lung = system: NCI-H23 lung
BT-549 breast = system: BT-549 breast
ACHN renal = system: ACHN renal
NCI-H522 lung = system: NCI-H522 lung
SK-MEL-2 melanoma = system: SK-MEL-2 melanoma
UACC-257 melanoma = system: UACC-257 melanoma
HCT-116 colon = system: HCT-116 colon
TK-10 renal = system: TK-10 renal
SR leukemia = system: SR leukemia
NCI/ADR-RES ovarian = system: NCI/ADR-RES ovarian
T-47D breast = system: T-47D breast
MCF7 breast = system: MCF7 breast
HCT-15 colon = system: HCT-15 colon
U251 CNS = system: U251 CNS
HOP-92 NSCLC = system: HOP-92 NSCLC
SK-MEL-28 melanoma = system: SK-MEL-28 melanoma
KM12 colon = system: KM12 colon
MDA-MB-231 breast = system: MDA-MB-231 breast
OVCAR-8 ovarian = system: OVCAR-8 ovarian
PC-3 prostate = system: PC-3 prostate
A549 NSCLC = system: A549 NSCLC
SK-OV-3 ovarian = system: SK-OV-3 ovarian
SF-295 CNS = system: SF-295 CNS
MDA-MB-435 = system: MDA-MB-435
UO-31 renal = system: UO-31 renal
HT29 colon = system: HT29 colon
786-0 renal = system: 786-0 renal
MOLT-4 leukemia = system: MOLT-4 leukemia
A498 renal = system: A498 renal
SNB-75 CNS = system: SNB-75 CNS
COLO 205 colon = system: COLO 205 colon
SF-268 CNS = system: SF-268 CNS
HL-60(TB) leukemia = system: HL-60(TB) leukemia
RXF 393 renal = system: RXF 393 renal
NCI-H226 lung = system: NCI-H226 lung
CAKI-1 renal = system: CAKI-1 renal
MALME-3M melanoma = system: MALME-3M melanoma
HOP-62 NSCLC = system: HOP-62 NSCLC

Nc1c(C(=O)c2cccc(C#CCN3CCOCC3)c2)cnn1-c1ccc(F)cc1
> 23.6 µM: TGI (NCI-H522 lung)
> 25 µM: TGI (SK-MEL-5 melanoma) | TGI (UACC-62 melanoma) | TGI (OVCAR-5 ovarian) | TGI (SNB-19 CNS) | TGI (LOX IMVI melanoma) | TGI (OVCAR-3 ovarian) | TGI (SN12C renal) | TGI (IGROV1 ovarian) | TGI (SW-620 colon) | TGI (DU-145 prostate) | TGI (RPMI-8226 leukemia) | TGI (HCC-2998 colon) | TGI (OVCAR-4 ovarian) | TGI (NCI-H460 lung) | TGI (M14 melanoma) | TGI (SF-539 CNS) | TGI (K-562 leukemia) | TGI (HS 578T breast) | TGI (NCI-H23 lung) | TGI (BT-549 breast) | TGI (ACHN renal) | TGI (SK-MEL-2 melanoma) | TGI (UACC-257 melanoma) | TGI (HCT-116 colon) | TGI (TK-10 renal) | TGI (SR leukemia) | TGI (NCI/ADR-RES ovarian) | TGI (T-47D breast) | TGI (MCF7 breast) | TGI (HCT-15 colon) | TGI (U251 CNS) | TGI (HOP-92 NSCLC) | TGI (SK-MEL-28 melanoma) | TGI (KM12 colon) | TGI (MDA-MB-231 breast) | TGI (OVCAR-8 ovarian) | TGI (PC-3 prostate) | TGI (A549 NSCLC) | TGI (SK-OV-3 ovarian) | TGI (SF-295 CNS) | TGI (UO-31 renal) | TGI (HT29 colon) | TGI (786-0 renal) | TGI (MOLT-4 leukemia) | TGI (A498 renal) | TGI (SNB-75 CNS) | TGI (COLO 205 colon) | TGI (SF-268 CNS) | TGI (HL-60(TB) leukemia) | TGI (RXF 393 renal) | TGI (NCI-H226 lung) | TGI (CAKI-1 renal) | TGI (MALME-3M melanoma) | TGI (HOP-62 NSCLC)
> 17.4 µM: TGI (MDA-MB-435)
inactive: GI50 (SK-MEL-5 melanoma) 8.88 µM | GI50 (UACC-62 melanoma) 19.6 µM | GI50 (OVCAR-5 ovarian) > 25 µM | GI50 (SNB-19 CNS) > 25 µM | GI50 (LOX IMVI melanoma) > 25 µM | GI50 (OVCAR-3 ovarian) > 23.1 µM | GI50 (SN12C renal) > 25 µM | GI50 (IGROV1 ovarian) > 17.2 µM | GI50 (SW-620 colon) 9.28 µM | GI50 (DU-145 prostate) > 25 µM | GI50 (RPMI-8226 leukemia) > 20.8 µM | GI50 (HCC-2998 colon) > 25 µM | GI50 (OVCAR-4 ovarian) > 25 µM | GI50 (NCI-H460 lung) > 16.5 µM | GI50 (M14 melanoma) > 25 µM | GI50 (SF-539 CNS) > 25 µM | GI50 (K-562 leukemia) 7.91 µM | GI50 (HS 578T breast) > 25 µM | GI50 (NCI-H23 lung) > 25 µM | GI50 (BT-549 breast) > 25 µM | GI50 (ACHN renal) > 25 µM | GI50 (NCI-H522 lung) > 10.9 µM | GI50 (SK-MEL-2 melanoma) > 15.3 µM | GI50 (UACC-257 melanoma) > 18.6 µM | GI50 (HCT-116 colon) > 22.8 µM | GI50 (TK-10 renal) > 23.4 µM | GI50 (SR leukemia) 4.09 µM | GI50 (NCI/ADR-RES ovarian) 8.23 µM | GI50 (T-47D breast) 8.83 µM | GI50 (MCF7 breast) 11.7 µM | GI50 (HCT-15 colon) 11.2 µM | GI50 (U251 CNS) > 21 µM | GI50 (HOP-92 NSCLC) > 13 µM | GI50 (SK-MEL-28 melanoma) > 25 µM | GI50 (KM12 colon) 8.29 µM | GI50 (MDA-MB-231 breast) > 25 µM | GI50 (OVCAR-8 ovarian) > 25 µM | GI50 (PC-3 prostate) 15.4 µM | GI50 (A549 NSCLC) > 16.6 µM | GI50 (SK-OV-3 ovarian) > 25 µM | GI50 (SF-295 CNS) > 6.3 µM | GI50 (MDA-MB-435) 4.41 µM | GI50 (UO-31 renal) > 25 µM | GI50 (HT29 colon) 10.9 µM | GI50 (786-0 renal) > 25 µM | GI50 (MOLT-4 leukemia) > 25 µM | GI50 (A498 renal) 11.1 µM | GI50 (SNB-75 CNS) > 6.15 µM | GI50 (COLO 205 colon) 7.97 µM | GI50 (SF-268 CNS) > 25 µM | GI50 (HL-60(TB) leukemia) 16.4 µM | GI50 (RXF 393 renal) > 25 µM | GI50 (NCI-H226 lung) > 20.4 µM | GI50 (CAKI-1 renal) > 16 µM | GI50 (MALME-3M melanoma) > 12.4 µM | GI50 (HOP-62 NSCLC) > 25 µM
